# Measurements reported in patent US12060588B2, “Methods of editing DNA methylation” (Whitehead Institute for Biomedical Research, priority 2016, dated 2024).
# Test system: C3H10T1/2 mouse embryonic fibroblast cells
# Test: Fibroblast-to-myoblast conversion assay
# Assay type: cell-based
# Source text: FIGS. 4A-4H depict targeted demethylation of the MyoD distal enhancer by dCas9-Tet1 to facilitate conversion of fibroblasts to myoblasts. FIG. 4A provides a schematic representation of targeting the MyoD distal enhancer (DE) region in DMR-5 by dCas9-Tet1 (dC-T) with specific gRNAs. […] Cherry positive cells were FACS sorted for RT-qPCR analysis. Bars represent mean±SD of three experimental replicates. FIG. 4C bisulfite sequencing of cells in FIG. 4B. […] Shown is the mean percentage±SD of two biological replicates. […] C3H10T1/2 cells were plated as 1×10^4 cells per well in 6-well plate, and then infected with lentiviruses expressing dC-T and gRNAs targeting DMR-5, or a catalytic dead form of Tet1 (dC-dT) with target gRNAs. 24-hour post infection, cells were treated with vehicle control (HEPES buffer) or 5-Azacytidine (1 uM) for 24-hour, and then harvested after 14 days for immunofluorescence staining. Stained in green for MyoD, magenta for MHC and blue for DAPI. Scale bar: 200 um. FIG. 4F provides quantification of MyoD positive cell ratio 14-day post infection with lentiviruses expressing dC-T alone, dC-T with gRNAs targeting DMR-5, and dC-dT with the target gRNAs. […] FIG. 4H provides quantification of myotube density in MHC positive clusters with more than 2 or 5 nuclei at 14-days after infection. […] Data are quantified from 3-5 representative images for F-H. Bars represent mean±SD.
# FIGS. 12A-12J depict targeted demethylation of the MyoD DMR-5 by dCas9-Tet1 and conversion of fibroblasts to myoblasts. […] PAM for each sgRNA is highlighted by a red box. FIG. 12B provides experimental scheme of the fibroblast-to-myoblast conversion assay. Briefly, C3H10T1/2 mouse embryonic fibroblast cells were plated as 1×10^4 cells per well in 6-well plate, and then infected with lentiviruses expressing dCas9-Tet1 and target gRNAs. 24-hour post infection, cells were optionally treated with 5-Azacytidine (1 uM) for 24-hour (labeled in red), and harvested for immunofluorescence staining at different time points (day-14, -16 and -25, labeled in dark blue) with medium change every other day. Scale bar: 100 um. […] Stained in green for MHC, red for MyoD and blue for DAPI. Scale bar: 200 um. FIG. 12D depicts a fraction of mock C3H10T1/2 cells expressing MyoD at different times after 5-Aza treatment. The fraction of cells expressing MyoD increases from around 6% at day 14 to around 13% at day 16 and reached around 20% at day 25. Bars represent mean±SD. FIG. 12E provides number of nuclei in MHC+ cell clusters (grouped as 1-2 and >2 nuclei per MHC+ cluster). […] Bars represent mean±SD. Data was quantified from 3-5 representative images for each group in FIG. 12D and FIG. 12E. […] Bars represent mean±SD of three experimental replicates. FIG. 12G provides representative images for C3H10T1/2 cells 16 days after infection with lentiviruses expressing dC-T and gRNAs targeting DMR-5 (MyoD distal enhancer) in a fibroblast-to-myoblast conversion assay as described in FIG. 12B. […] Stained in magenta for MHC, green for MyoD and blue for DAPI. Scale bar: 200 um. FIG. 12H depicts a fraction of MyoD positive cells 16 days after infection with lentiviruses expressing dC-T alone or with gRNAs targeting DMR-5. FIG. 12I show a number of nuclei in MHC+ cell clusters (grouped as 2-5, 6-10, 11-20 and >20 nuclei per MHC+ cluster) 16 days after infection. […] Data are quantified from 3-5 representative images for FIGS. 12H-12J. Bars represent mean±SD.
# We then investigated whether targeted demethylation of DMR-5 would synergize with 5-Aza treatment to induce myotube formation (FIG. 12B). To follow the process of myotube formation after 5-Aza treatment, a time-course experiment was performed. Multi-nucleated myotube (MHC-positive) with heterogeneous sizes began to form 14 days post treatment, and both MyoD-positive cell ratio and myotube density and size then increased up to day-25 (FIGS. 12C-12E). […]
substance,measurement,setting,value
"dCas9-Tet1: catalytically inactive Cas9 (dCas9) fused through NLS to the Tet1 catalytic domain, SEQ ID NO: 159; lentivirally expressed with gRNAs",MyoD expression level (immunofluorescence),"with gRNAs targeting DMR-5, 14 days, absence of 5-Aza",moderate expression level of MyoD
same,myotube formation,"with gRNAs targeting DMR-5, 14 days, absence of 5-Aza treatment",not sufficient to induce myotube formation
same,"myotube formation (MHC+ clusters, >2 nuclei per cluster)","with gRNAs targeting MyoD DMR-5 plus 5-Aza, 14 days post-treatment, versus dCas9-Tet1 only or dC-dT",facilitated the myotube formation
